Experimental data as given in patent EP1964555A1, “PHARMACEUTICAL CO[…] INHIBIT THE REUPTAKE OF NORADRENALINE, DOPAMINE AND SEROTONIN, WHICH ARE COMBINED WITH AN AMINO ACID FOR THE TREATMENT OF OBESITY AND OVERWEIGHT” (Espinosa Abdala, Leopoldo de Jesús, priority 2005, dated 2007).

How the values were obtained:
[1] = Example 2: randomized, double-blind, crossover study in patients with severe obesity and dyslipidemia; assay type: in vivo; settings: 4 weeks per treatment
Experimental: A randomized, double-blind and crossover study was made in order to assess the reliability and effectiveness of the combination Sibutramine-Carnitine in patients with obesity and/or overweight suffering from dyslipidemia. 80 individuals were included in the study with a BMI higher than 35 kg/m^2 diagnosed with severe obesity, with alteration in the profile of lipids which total cholesterol figures was higher than 200 mg/dl.
Combined Sibutramine-carnitine was administered for 4 weeks and subsequently sibutramine alone and carnitine alone for another 4 weeks.

[2] = cited from earlier work; for plasma rates: after administration of indicated Sibutramine therapeutic doses; for detection in urine: in vivo; for maximum plasma concentration [Tmax]: time after administration; for time for plasma concentrations to reach the stable state: during treatment; for effect of food on Tmax / effect of food on maximum concentrations: with food
human plasmatic proteins = settings: plasma; cited from earlier work
[3] = single dose, within a 15-day period

For `CC(C)CC(N(C)C)C1(c2ccc(Cl)cc2)CCC1` (stereo not shown) [Sibutramine], the “cholesterol and triglycerides levels” value ([1]; compared to the admission visit) is given as “frank progressive reduction”, the plasma rates [2] is given as 3% and the detection in urine [2] is given as “not detected”. The “share expelled through urine” value [2, 3] was 77%, the “share of dose expelled through urine and feces” value [2, 3] was “About 85%” and the “maximum plasma concentration [Tmax]” value [2] was 1.2 h. For the same compound, the “attachment to human plasmatic proteins” value (human plasmatic proteins) was 97%.
In the case of `CNC(CC(C)C)C1(c2ccc(Cl)cc2)CCC1` (stereo not shown) [M1, mono-desmetilsibutramina], the plasma rates [2] is listed as 6%, the “time for plasma concentrations to reach the stable state” value [2] is listed as “four” and the detection in urine [2] is listed as “not detected”. For the same compound, the “maximum plasma concentration [Tmax]” value [2] was roughly 3 h, the “effect of food on Tmax” value [2] was “delay” and the “effect of food on maximum concentrations” value [2] was “decreases”. The “attachment to human plasmatic proteins” value (human plasmatic proteins) was 94%.
With `C[N+](C)(C)CC(O)CC(=O)[O-]` (stereo not shown) [carnitine, Carnitine] the “reduction of BMI” value ([1]; BMI higher than 35 kg/m^2, total cholesterol higher than 200 mg/dl, combination compared to sibutramine alone) was “no significant differences”.
For `CC(C)CC(N)C1(c2ccc(Cl)cc2)CCC1` (stereo not shown) [M2, di-desmetil-sibutramina], the plasma rates [2] is listed as 12%, the “time for plasma concentrations to reach the stable state” value [2] is listed as “four” and the detection in urine [2] is listed as “not detected”. The “maximum plasma concentration [Tmax]” value [2] was roughly 4 h, the “effect of food on Tmax” value [2] was “delay” and the “effect of food on maximum concentrations” value [2] was “decreases”. The “attachment to human plasmatic proteins” value (human plasmatic proteins) was 94%.
